The target of assay [1] is T1, von Hippel-Lindau disease tumor suppressor/Histone deacetylase 1 (Homo sapiens, UniProt P40337+Q13547). As to the kind of experiment: PROTAC activity at VHL/LSD1/HDAC1/CoREST complex interaction (unknown origin) assessed as induction of HDAC1 degradation using Boc-(Ac)Lys-AMC as substrate incubated for 20 mins by fluorescence based assay.
Assay [2] addresses von Hippel-Lindau disease tumor suppressor/Histone deacetylase 1 (Homo sapiens) (UniProt Q13547+P40337). As to the kind of experiment: PROTAC activity at VHL/HDAC1 in human HCT-116 cells assessed as induction of HDAC1 degradation at 1 uM incubated for 24 hrs by Western blot analysis relative to control. The class given is cell-based.
The target in assay [3] is von Hippel-Lindau disease tumor suppressor/Histone deacetylase 2 (Homo sapiens) (UniProt Q92769+P40337). As to the kind of experiment: PROTAC activity at VHL/HDAC2 in human HCT-116 cells assessed as induction of HDAC1 degradation at 1 uM incubated for 24 hrs by Western blot analysis relative to control. In kind it is cell-based. In general terms: In western blotting, separated proteins are transferred to a membrane and probed.

Assay [4] has as its target T2, von Hippel-Lindau disease tumor suppressor/Histone deacetylase 3 (Homo sapiens, UniProt O15379+P40337). Briefly: PROTAC activity at VHL/HDAC3 in human HCT-116 cells assessed as induction of HDAC1 degradation at 1 uM incubated for 24 hrs by Western blot analysis relative to control. In kind it is cell-based.
Target sequence in this assay (O15379 whole entry, looked up): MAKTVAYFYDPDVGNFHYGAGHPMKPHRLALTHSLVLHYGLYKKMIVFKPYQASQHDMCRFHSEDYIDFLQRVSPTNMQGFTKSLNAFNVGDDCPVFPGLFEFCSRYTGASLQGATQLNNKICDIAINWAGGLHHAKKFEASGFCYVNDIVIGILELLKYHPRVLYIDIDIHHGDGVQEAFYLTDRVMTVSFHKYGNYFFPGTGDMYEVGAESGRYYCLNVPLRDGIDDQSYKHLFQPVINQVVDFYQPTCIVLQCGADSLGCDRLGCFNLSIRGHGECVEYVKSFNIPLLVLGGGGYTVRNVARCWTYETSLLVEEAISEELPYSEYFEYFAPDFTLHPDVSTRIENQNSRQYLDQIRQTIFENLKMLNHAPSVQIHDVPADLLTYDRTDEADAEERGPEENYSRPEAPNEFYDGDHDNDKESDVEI
Target sequence in this assay (P40337 whole entry, looked up): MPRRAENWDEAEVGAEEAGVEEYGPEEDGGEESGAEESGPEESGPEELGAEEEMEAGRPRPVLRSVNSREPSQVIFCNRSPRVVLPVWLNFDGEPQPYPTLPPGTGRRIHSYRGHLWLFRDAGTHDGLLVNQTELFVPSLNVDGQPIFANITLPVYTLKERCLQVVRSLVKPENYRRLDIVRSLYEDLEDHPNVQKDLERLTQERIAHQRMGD
Assay [5] is described as follows: Inhibition of His-tagged recombinant human HDAC1 expressed in baculovirus infected insect cells using SIRT1 deacetylase substrate incubated for 30 mins by Luminescence Glo assay.
Assay [6] addresses T3, Histone deacetylase 1 (Homo sapiens, UniProt Q13547). Briefly: Inhibition of recombinant human HDAC1 using fluorogenic acetylated peptide substrate incubated for 30 mins by microplate reader analysis.
The species named for assay [7] is Homo sapiens. Briefly: Selectivity ratio of IC50 for recombinant human HDAC6 to IC50 for recombinant human HDAC1.
For assay [8], the system named is HeLa. Briefly: Antiproliferative activity against human HeLa cells assessed as cell growth inhibition incubated for 48 hrs by MTT assay. In kind it is functional, cell-based. For orientation: Tetrazolium assays rely on reduction of a dye to a coloured formazan, in cell work by metabolically active cells.
Assay [9] addresses T4, Protein deacetylase HDAC6 (Homo sapiens, UniProt Q9UBN7).
T4 sequence (Q9UBN7 whole entry): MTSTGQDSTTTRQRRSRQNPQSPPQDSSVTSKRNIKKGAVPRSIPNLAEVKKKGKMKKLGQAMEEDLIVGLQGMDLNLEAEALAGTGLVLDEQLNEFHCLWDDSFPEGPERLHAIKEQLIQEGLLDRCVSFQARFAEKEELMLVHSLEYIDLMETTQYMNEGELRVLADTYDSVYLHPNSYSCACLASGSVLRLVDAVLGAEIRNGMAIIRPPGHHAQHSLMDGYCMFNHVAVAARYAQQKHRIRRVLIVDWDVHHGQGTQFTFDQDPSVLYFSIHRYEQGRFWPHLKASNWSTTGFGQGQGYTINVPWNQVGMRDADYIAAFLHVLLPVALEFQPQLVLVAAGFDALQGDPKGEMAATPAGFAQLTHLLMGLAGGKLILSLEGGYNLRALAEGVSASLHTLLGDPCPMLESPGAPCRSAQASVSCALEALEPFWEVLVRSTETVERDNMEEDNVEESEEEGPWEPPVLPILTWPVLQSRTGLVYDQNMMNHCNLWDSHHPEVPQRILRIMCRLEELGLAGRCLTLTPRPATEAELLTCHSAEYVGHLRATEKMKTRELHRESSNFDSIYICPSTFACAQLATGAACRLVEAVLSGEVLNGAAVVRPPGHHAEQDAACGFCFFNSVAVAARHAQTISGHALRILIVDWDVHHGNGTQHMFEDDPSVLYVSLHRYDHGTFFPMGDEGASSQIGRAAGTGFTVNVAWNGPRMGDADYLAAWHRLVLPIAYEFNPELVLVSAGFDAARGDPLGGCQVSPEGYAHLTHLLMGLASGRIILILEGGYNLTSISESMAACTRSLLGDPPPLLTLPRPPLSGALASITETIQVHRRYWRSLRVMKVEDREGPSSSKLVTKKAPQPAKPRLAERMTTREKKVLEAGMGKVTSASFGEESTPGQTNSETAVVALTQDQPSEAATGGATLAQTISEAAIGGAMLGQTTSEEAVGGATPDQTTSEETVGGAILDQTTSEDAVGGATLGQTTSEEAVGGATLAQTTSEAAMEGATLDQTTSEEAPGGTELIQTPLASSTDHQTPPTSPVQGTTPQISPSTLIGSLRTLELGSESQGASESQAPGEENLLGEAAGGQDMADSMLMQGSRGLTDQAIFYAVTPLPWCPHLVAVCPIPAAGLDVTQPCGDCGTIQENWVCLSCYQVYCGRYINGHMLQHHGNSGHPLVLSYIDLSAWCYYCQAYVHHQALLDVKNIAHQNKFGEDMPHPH
Briefly: Inhibition of HDAC6 (unknown origin) incubated for 30 mins by fluorescence based assay.

In assay [10] the target is T3, Histone deacetylase 1. Briefly: Inhibition of HDAC1 (unknown origin) incubated for 30 mins by fluorescence based assay.
Assay [11] addresses T3, Histone deacetylase 1. As to the kind of experiment: Inhibition of HDAC1 (unknown origin) using fluorimetric substrate incubated for 30 mins by fluorogenic assay.
Assay [12] has as its target T2, von Hippel-Lindau disease tumor suppressor/Histone deacetylase 3. As to the kind of experiment: PROTAC activity at VHL/HDAC3 in human MDA-MB-468 cells assessed as induction of HDAC3 degradation incubated for 14 hrs by Western blot analysis. In kind it is cell-based.
Target sequence in this assay (O15379 whole entry): as the sequence (O15379 whole entry, looked up) above
Target sequence in this assay (P40337 whole entry): as the sequence (P40337 whole entry, looked up) above
Assay [13] deals with T1, von Hippel-Lindau disease tumor suppressor/Histone deacetylase 1. As to the kind of experiment: PROTAC activity at VHL/HDAC1 (unknown origin) by cell based assay.
Assay [14] deals with von Hippel-Lindau disease tumor suppressor/Histone deacetylase 2 (Homo sapiens, UniProt P40337+Q92769). Briefly: PROTAC activity at VHL/HDAC2 (unknown origin) by cell based assay.
Assay [15] has as its target T2, von Hippel-Lindau disease tumor suppressor/Histone deacetylase 3. Briefly: PROTAC activity at VHL/HDAC3 (unknown origin) by cell based assay.
Target sequence in this assay (O15379 whole entry): as the sequence (O15379 whole entry, looked up) above
Target sequence in this assay (P40337 whole entry): as the sequence (P40337 whole entry, looked up) above
Assay [16] has as its target Protein cereblon/Histone deacetylase 1 (Homo sapiens, UniProt Q13547+Q96SW2). Briefly: PROTAC activity at CRBN/HDAC1 (unknown origin) by cell based assay.
Assay [17] addresses Protein cereblon/Histone deacetylase 2 (Homo sapiens, UniProt Q92769+Q96SW2). As to the kind of experiment: PROTAC activity at CRBN/HDAC2 (unknown origin) by cell based assay.
Assay [18] deals with Protein cereblon/Histone deacetylase 3 (Homo sapiens, UniProt O15379+Q96SW2). Briefly: PROTAC activity at CRBN/HDAC3 (unknown origin) by cell based assay.
The target of assay [19] is Protein cereblon/Protein deacetylase HDAC6 (Homo sapiens, UniProt Q96SW2+Q9UBN7). Briefly: PROTAC activity at CRBN/HDAC6 (unknown origin) by cell based assay.
The target of assay [20] is T4, Protein deacetylase HDAC6. Briefly: Inhibition of HDAC6 derived from human HeLa cell nuclear extract using Boc-Lys(Ac)-AMC as substrate by fluorescence based assay. The class given is cell-free.
The target in assay [21] is T3, Histone deacetylase 1. Briefly: Inhibition of HDAC1 derived from human HeLa cell nuclear extract using Boc-Lys(Ac)-AMC as substrate by fluorescence based assay. In kind it is cell-free.
Assay [22] addresses T3, Histone deacetylase 1. As to the kind of experiment: Inhibition of recombinant human HDAC1 using fluorescent deacetylated substrate incubated for 15 mins by fluorescence based assay.
The target in assay [23] is Histone deacetylase 2 (Homo sapiens, UniProt Q92769). As to the kind of experiment: Inhibition of recombinant human HDAC2 using fluorescent green substrate incubated for 30 mins by fluorescence based assay.
The nature of assay [24]: Inhibition of recombinant human HDAC3/NCOR1 using fluorescent deacetylated substrate incubated for 15 mins by fluorescence based assay.

The record followed here is ChEMBL document CHEMBL5136981, “Medicinal chemistry updates of novel HDACs inhibitors (2020 to present)” (Eur J Med Chem, 2022).

Each structure is given as a SMILES string.

One may read the IC50 as the midpoint of a concentration-inhibition curve. The EC50 is the concentration needed to bring the measured effect to its halfway point.

T3 sequence (Q13547 whole entry): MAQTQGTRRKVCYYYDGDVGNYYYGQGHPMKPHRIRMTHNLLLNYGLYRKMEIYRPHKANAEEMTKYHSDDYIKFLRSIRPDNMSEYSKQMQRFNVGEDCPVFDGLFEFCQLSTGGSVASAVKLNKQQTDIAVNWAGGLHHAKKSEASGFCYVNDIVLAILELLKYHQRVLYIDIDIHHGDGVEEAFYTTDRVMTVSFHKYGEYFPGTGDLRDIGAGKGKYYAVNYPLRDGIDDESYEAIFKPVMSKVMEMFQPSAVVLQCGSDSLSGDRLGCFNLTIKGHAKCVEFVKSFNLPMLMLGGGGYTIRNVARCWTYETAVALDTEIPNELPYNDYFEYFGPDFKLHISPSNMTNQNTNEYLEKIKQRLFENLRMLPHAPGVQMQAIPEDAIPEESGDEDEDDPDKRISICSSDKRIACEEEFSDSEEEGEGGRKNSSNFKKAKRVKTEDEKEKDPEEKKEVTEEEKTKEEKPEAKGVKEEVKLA
T1 sequence (Q13547 whole entry): as above
T1 sequence (P40337 whole entry): as the sequence (P40337 whole entry, looked up) above
Sequence of Protein cereblon/Histone deacetylase 3 (O15379 whole entry): as the sequence (O15379 whole entry, looked up) above
Sequence of Protein cereblon/Histone deacetylase 3 (Q96SW2 whole entry): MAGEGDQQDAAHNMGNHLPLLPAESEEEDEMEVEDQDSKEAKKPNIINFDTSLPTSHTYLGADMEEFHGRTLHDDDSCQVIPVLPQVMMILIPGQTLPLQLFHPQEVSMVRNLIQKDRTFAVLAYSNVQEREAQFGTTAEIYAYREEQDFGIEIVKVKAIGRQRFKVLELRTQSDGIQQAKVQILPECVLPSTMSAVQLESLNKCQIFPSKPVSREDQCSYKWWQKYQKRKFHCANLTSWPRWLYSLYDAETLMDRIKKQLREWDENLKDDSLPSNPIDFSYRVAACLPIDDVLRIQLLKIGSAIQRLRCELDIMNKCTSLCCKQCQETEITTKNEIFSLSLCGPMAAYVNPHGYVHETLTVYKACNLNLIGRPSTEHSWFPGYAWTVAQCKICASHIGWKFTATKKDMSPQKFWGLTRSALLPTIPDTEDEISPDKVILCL
Sequence of Protein cereblon/Histone deacetylase 1 (Q13547 whole entry): as the sequence (Q13547 whole entry) above
Sequence of Protein cereblon/Histone deacetylase 1 (Q96SW2 whole entry): as the sequence (Q96SW2 whole entry) above
Sequence of Protein cereblon/Histone deacetylase 2 (Q92769 whole entry): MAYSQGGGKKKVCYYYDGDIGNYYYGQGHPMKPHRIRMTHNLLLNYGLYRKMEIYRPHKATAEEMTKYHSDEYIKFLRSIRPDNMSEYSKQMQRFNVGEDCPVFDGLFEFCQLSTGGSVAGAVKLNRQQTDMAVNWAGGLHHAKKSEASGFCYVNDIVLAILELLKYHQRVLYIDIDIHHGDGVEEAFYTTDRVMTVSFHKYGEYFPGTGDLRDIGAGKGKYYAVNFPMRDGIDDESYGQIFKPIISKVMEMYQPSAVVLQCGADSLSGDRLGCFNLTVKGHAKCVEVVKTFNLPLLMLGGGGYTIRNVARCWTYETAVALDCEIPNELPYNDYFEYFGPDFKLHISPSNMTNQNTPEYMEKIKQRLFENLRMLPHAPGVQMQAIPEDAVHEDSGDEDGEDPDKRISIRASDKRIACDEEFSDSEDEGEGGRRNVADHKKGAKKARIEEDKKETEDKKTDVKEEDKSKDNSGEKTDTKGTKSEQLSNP
Sequence of Protein cereblon/Histone deacetylase 2 (Q96SW2 whole entry): as the sequence (Q96SW2 whole entry) above
Sequence of von Hippel-Lindau disease tumor suppressor/Histone deacetylase 2 (Q92769 whole entry): as the sequence (Q92769 whole entry) above
Sequence of von Hippel-Lindau disease tumor suppressor/Histone deacetylase 2 (P40337 whole entry): as the sequence (P40337 whole entry, looked up) above
Sequence of Histone deacetylase 2 (Q92769 whole entry): as the sequence (Q92769 whole entry) above
Sequence of Protein cereblon/Protein deacetylase HDAC6 (Q96SW2 whole entry, one chain of several): as the sequence (Q96SW2 whole entry) above
Sequence of von Hippel-Lindau disease tumor suppressor/Histone deacetylase 1 (Homo sapiens) (P40337 whole entry, looked up): as the sequence (P40337 whole entry, looked up) above
Sequence of von Hippel-Lindau disease tumor suppressor/Histone deacetylase 1 (Homo sapiens) (Q13547 whole entry, looked up): as the sequence (Q13547 whole entry) above
Sequence of von Hippel-Lindau disease tumor suppressor/Histone deacetylase 2 (Homo sapiens) (P40337 whole entry, looked up): as the sequence (P40337 whole entry, looked up) above
Sequence of von Hippel-Lindau disease tumor suppressor/Histone deacetylase 2 (Homo sapiens) (Q92769 whole entry, looked up): as the sequence (Q92769 whole entry) above

Take `Cc1ncsc1-c1ccc(CNC(=O)[C@@H]2C[C@@H](O)CN2C(=O)[C@@H](NC(=O)CCCCCCCCCCC(=O)Nc2ccc(C(=O)Nc3ccccc3N)cc2)C(C)(C)C)cc1`: the IC50 in [1] came out at 16800 nM. For the same compound, the Activity in assay [2], in assay [3] and in assay [4] was 50% in each case.
Turning to `CCCCNNC(=O)c1ccc(-c2ccccc2)cc1`, the IC50 in [5] was 90 nM.
Turning to `COc1ccc2cc(C(=O)Oc3cccc(/C=C/C(=O)NO)c3)c(=O)oc2c1`, the IC50 was determined as 190 nM in assay [6] and 230 nM in assay [8]. Moreover, the Ratio IC50 in assay [7] stood at 26.
For `O=C(CCCCCCC(=O)Nc1nc2c(s1)C[C@@H](NC(=O)c1cccc3ccccc13)CC2)NO`, the IC50 in [9] stood at 4.6 nM; in [10] it was 1.4 nM.
`Cc1ccc(C(=O)Nc2nc(C(=O)NO)co2)cc1` gave an IC50 in [11] of 10 nM.
On to `CCCNNC(=O)c1ccc(-c2ccc(NC(=O)CCCCCCC(=O)N[C@H](C(=O)N3C[C@H](O)C[C@H]3C(=O)N[C@@H](C)c3ccc(-c4scnc4C)cc3)C(C)(C)C)cc2)cc1`, for which the EC50 in assay [12] amounted to 42 nM. Further, the IC50 in assay [13] was 650 nM; in assay [14], 1550 nM; in assay [15], 350 nM.
For the compound `O=C(CCCCCCNC(=O)c1ccc(NC(=O)COCCOCCNC(=O)COc2cccc3c2C(=O)N(C2CCC(=O)NC2=O)C3=O)cc1)NO` (centres undefined), the IC50 stood at 174 nM in assay [16], 248 nM in [17], 27 nM in assay [18] and 27 nM in assay [19].
For `CC(C)n1cnc2c(-c3cccc(OCCCC(=O)NO)c3)nc(N3CCOCC3)nc21`, the IC50 in assay [20] was 24 nM; in [21] it was 82 nM.
For `Nc1ccccc1NC(=O)c1ccc2ncccc2c1`, the IC50 amounted to 18700 nM in assay [22], 26000 nM in [23] and 560 nM in assay [24].
